Measured values taken from ChEMBL document CHEMBL1150120, “New vibsane diterpenes and lupane triterpenes from Viburnum odoratissimum” (2002).
*1 amine or outer side, *2 acyl side, *3 side chain or, on linkers, in order; H or OH if unused. Where a SMILES comes first, the peptide text is derived from it. Bridges are numbered along the chain shown (N, C = ends). Roman numbers before positions name the chains, in order. [ ]: non-standard residue; d: D form. Actinocin(1to9) = Cc1c2oc3c(C)ccc(C(=O)[*:2])c3nc-2c(C(=O)[*:1])c(N)c1=O; NMeV = CN[C@H](C(=O)O)C(C)C; Sar = CNCC(=O)O

Experiments:
[1] = tested on: NUGC; assay: Cytotoxicity against human NUGC cells assessed as cell growth at 10 uM after 3 to 24 hrs by MTS assay; type: functional; conditions: read-out: Activity
[2] = tested on: NUGC; assay: Cytotoxicity against human NUGC cells assessed as cell growth at 5 uM after 3 to 24 hrs by MTS assay; type: functional; conditions: read-out: Activity

Row | Compound | growth at 10 µM [1] | growth at 5 µM [2]
1 | C=C(C)[C@@H]1CC[C@]2(C(=O)O)CC[C@]3(C(=O)O)[C@H](CC[C@@H]4[C@@]5(C)CCC(=O)C(C)(C)[C@@H]5[C@@H](O)C[C@]43C)[C@@H]12 | > 50% | –
2 | C=C(C)[C@@H]1CC[C@]2(C(=O)O)CC[C@]3(C(=O)O)[C@H](CC[C@@H]4[C@@]5(C)CCC(=O)C(C)(C)[C@@H]5[C@H](O)C[C@]43C)[C@@H]12 | 20% | –
3 | Cc1c2oc3c(C)ccc(C(=O)N[C@@H]4C(=O)N[C@H](C(C)C)C(=O)N5CCC[C@H]5C(=O)N(C)CC(=O)N(C)[C@@H](C(C)C)C(=O)O[C@@H]4C)c3nc-2c(C(=O)N[C@@H]2C(=O)N[C@H](C(C)C)C(=O)N3CCC[C@H]3C(=O)N(C)CC(=O)N(C)[C@@H](C(C)C)C(=O)O[C@@H]2C)c(N)c1=O [DACTINOMYCIN] (I: T[dV]P[Sar][NMeV] / II: T[dV]P[Sar][NMeV]; ester I:1-I:C, II:1-II:C; linker I:N-II:N via Actinocin(1to9)) | – | 0%
4 | CC(C)=CC(=O)O[C@@H]1/C=C/[C@@](C)(C/C=C/C(C)(C)O)C/C=C(/CO)C(=O)/C=C/[C@@]1(C)O [VABSANOL A] | 15% | –
5 | C=C(C)C(O)CC[C@]1(C)/C=C/[C@@H](OC(=O)C=C(C)C)[C@](C)(O)/C=C/C(=O)/C(CO)=C\C1 (stereo not given in full) [VIBSANOL B] | > 50% | –
